Experimental findings from patent US11534457B2, “Use of dextran sulfate” (priority 2017, dated 2022) are described below.

This assay has as its system BF4T system [bronchial epithelial cells and HDFn+(TNFα and IL-4)]. Description: BioMAP BF4T system. The class given is cell-based, Human. The text has this: In this study LMW-DS was characterized by profiling in the BioMAP® Diversity PLUS panel. The BioMAP® panel consists of human primary cell-based systems designed to model different aspects of the human body in an in vitro format. The 12 systems in the BioMAP® Diversity PLUS panel (Table 32) allow test agent characterization in an unbiased way across a broad set of systems modeling various human disease states. The BioMA®P systems are constructed with one or more primary cell types from healthy human donors, with stimuli, such as cytokines or growth factors, added to capture relevant signaling networks that naturally occur in human tissue or pathological conditions. […]
Systems are derived from either single cell types or co-culture systems. […] Test agents prepared in either DMSO (small molecules; final concentration 0.1%) or PBS (biologics) are added at the indicated concentrations 1-hr before stimulation, and remain in culture for 24-hrs or as otherwise indicated (48-hrs, MyoF system; 72-hrs, BT system (soluble readouts); 168-hrs, BT system (secreted IgG)). […] Soluble factors from supernatants are quantified using either HTRF® detection, bead-based multiplex immunoassay or capture ELISA. Overt adverse effects of test agents on cell proliferation and viability (cytotoxicity) are detected by sulforhodamine B (SRB) staining, for adherent cells, and alamarBlue® reduction for cells in suspension. […]

For the substance “low molecular weight dextran sulfate [LMW-DS]”, the Increased biomarker activity result (BF4T system) was “Eot3”. Also, the Eotaxin-3 entry (lower concentrations only) is “Modestly increased”.
